Experiments:
[1] = test system: MCF7; assay: Cytotoxicity against human MCF7 cells incubated for 24 hrs measured 48 hrs post cell re-growth post compound dose by MTT assay; type: functional, cell-based
[2] = test system: HCT-15; assay: Cytotoxicity against human HCT15 cells incubated for 24 hrs measured 48 hrs post cell re-growth post compound dose by MTT assay; type: functional, cell-based
[3] = test system: A549; assay: Cytotoxicity against human A549 cells incubated for 24 hrs measured 48 hrs post cell re-growth post compound dose by MTT assay; type: functional, cell-based
[4] = test system: MCF7; assay: Antitumor activity against human MCF7 cells xenografted in NOD.Cg-Prkdcscid Il2rgtmw/SzJ jax 005557 mouse assessed as tumor weight at 10 mg/kg, iv administered as 5 doses every 4 days starting at day 9 post-tumor grafting measured on day 45 relative to vehicle treated control; type: functional
[5] = test system: Mus musculus; assay: Toxicity in NOD.Cg-Prkdcscid Il2rgtmw/SzJ jax 005557 mouse xenografted with human HCT15 cells assessed as weight loss at 10 mg/kg, iv administered as 5 doses every 3 days starting at day 7 post-tumor grafting relative to vehicle treated control; type: organism-based, HCT-15; parameters: dose 10 mg/kg, route intravenous; conditions: in vivo, 72 h
[6] = test system: Mus musculus; assay: Toxicity in NOD.Cg-Prkdcscid Il2rgtmw/SzJ jax 005557 mouse xenografted with human MCF7 cells assessed as induction of toxic effect at 10 mg/kg, iv administered as 5 doses every 4 days starting at day 9 post-tumor grafting relative to vehicle treated control; type: organism-based; parameters: dose 10 mg/kg, route intravenous; conditions: in vivo, 96 h
[7] = Toxicity in iv dosed NOD.Cg-Prkdcscid Il2rgtmw/SzJ jax 005557 mouse assessed as maximum tolerated dose at 10 mg/kg, iv administered as 5 doses every 3 days starting at day 7 post-tumor grafting; type: organism-based; parameters: dose 10 mg/kg, route intravenous; conditions: in vivo
[8] = test system: MCF7; assay: Antitumor activity against human MCF7 cells xenografted in NOD.Cg-Prkdcscid Il2rgtmw/SzJ jax 005557 mouse assessed as tumor weight at 10 mg/kg, iv administered as weekly four doses starting at day 13 post-tumor grafting measured on day 45 relative to vehicle treated control; type: functional
[9] = test system: Mus musculus; assay: Toxicity in NOD.Cg-Prkdcscid Il2rgtmw/SzJ jax 005557 mouse xenografted with human MCF7 cells assessed as mortality incidence at 10 mg/kg, iv administered as weekly four doses starting at day 13 post-tumor grafting relative to vehicle treated control; type: organism-based; parameters: dose 10 mg/kg, route intravenous; conditions: in vivo
[10] = test system: HCT-15; assay: Antitumor activity against human HCT15 cells xenografted in NOD.Cg-Prkdcscid Il2rgtmw/SzJ jax 005557 mouse assessed as tumor weight at 10 mg/kg, iv administered as 5 doses every 3 days starting at day 7 post-tumor grafting measured on day 25 relative to vehicle treated control; type: functional
[11] = test system: Mus musculus; assay: Toxicity in NOD.Cg-Prkdcscid Il2rgtmw/SzJ jax 005557 mouse xenografted with human MCF7 cells assessed as induction of toxic effect at 10 mg/kg, iv administered as weekly four doses starting at day 13 post-tumor grafting relative to vehicle treated control; type: organism-based; parameters: dose 10 mg/kg, route intravenous; conditions: in vivo
[12] = test system: Mus musculus; assay: Toxicity in NOD.Cg-Prkdcscid Il2rgtmw/SzJ jax 005557 mouse xenografted with human MCF7 cells assessed as mortality incidence at 10 mg/kg, iv administered as 5 doses every 4 days starting at day 9 post-tumor grafting relative to vehicle treated control; type: organism-based; parameters: dose 10 mg/kg, route intravenous; conditions: in vivo, 96 h
[13] = test system: Mus musculus; assay: Toxicity in NOD.Cg-Prkdcscid Il2rgtmw/SzJ jax 005557 mouse xenografted with human HCT15 cells assessed as mortality incidence at 10 mg/kg, iv administered as 5 doses every 3 days starting at day 7 post-tumor grafting relative to vehicle treated control; type: organism-based, HCT-15; parameters: dose 10 mg/kg, route intravenous; conditions: in vivo, 72 h
[14] = test system: Mus musculus; assay: Toxicity in NOD.Cg-Prkdcscid Il2rgtmw/SzJ jax 005557 mouse xenografted with human MCF7 cells assessed as weight loss at 10 mg/kg, iv administered as 5 doses every 4 days starting at day 9 post-tumor grafting relative to vehicle treated control; type: organism-based; parameters: dose 10 mg/kg, route intravenous; conditions: in vivo, 96 h
[15] = test system: Mus musculus; assay: Toxicity in NOD.Cg-Prkdcscid Il2rgtmw/SzJ jax 005557 mouse xenografted with human MCF7 cells assessed as weight loss at 10 mg/kg, iv administered as weekly four doses starting at day 13 post-tumor grafting relative to vehicle treated control; type: organism-based; parameters: dose 10 mg/kg, route intravenous; conditions: in vivo
[16] = test system: Mus musculus; assay: Toxicity in NOD.Cg-Prkdcscid Il2rgtmw/SzJ jax 005557 mouse xenografted with human HCT15 cells assessed as induction of toxic effect at 10 mg/kg, iv administered as 5 doses every 3 days starting at day 7 post-tumor grafting relative to vehicle treated control; type: organism-based, HCT-15; parameters: dose 10 mg/kg, route intravenous; conditions: in vivo, 72 h
[17] = Toxicity in iv dosed NOD.Cg-Prkdcscid Il2rgtmw/SzJ jax 005557 mouse assessed as maximum tolerated dose at 10 mg/kg, iv administered as 5 doses every 4 days starting at day 9 post-tumor grafting; type: organism-based; parameters: dose 10 mg/kg, route intravenous; conditions: in vivo
[18] = Toxicity in iv dosed NOD.Cg-Prkdcscid Il2rgtmw/SzJ jax 005557 mouse assessed as maximum tolerated dose at 10 mg/kg, iv administered as weekly four doses starting at day 13 post-tumor grafting; type: organism-based; parameters: dose 10 mg/kg, route intravenous; conditions: in vivo

CCN1C[C@]2(COC)[C@H](O)C[C@H](OC)[C@]34C1[C@H]([C@H](OC)[C@H]23)[C@]1(OC(=O)CCCCC(=O)O)[C@H]2[C@@H](OC(=O)c3ccccc3)[C@](O)(C[C@H]24)[C@@H](OC)[C@@H]1O
IC50 [1]: > 60 µM
IC50 [2]: > 60 µM
IC50 [3]: > 60 µM

CCN1C[C@]2(COC)[C@H](O)C[C@H](OC)[C@]34C1[C@H]([C@H](OC)[C@H]23)[C@]1(OC(=O)CCC(=O)O)[C@H]2[C@@H](OC(=O)c3ccccc3)[C@](O)(C[C@H]24)[C@@H](OC)[C@@H]1O
IC50 [1]: > 60 µM
IC50 [2]: > 60 µM
IC50 [3]: > 60 µM

CCN1C[C@]2(COC)[C@H](O)C[C@H](OC)[C@]34C1[C@H]([C@H](OC)[C@H]23)[C@]1(OC(=O)CCCC(=O)O)[C@H]2[C@@H](OC(=O)c3ccccc3)[C@](O)(C[C@H]24)[C@@H](OC)[C@@H]1O
IC50 [1]: > 60 µM
IC50 [2]: > 60 µM
IC50 [3]: > 60 µM

CCN1C[C@]2(COC)[C@H](O)C[C@H](OC)[C@]34C1[C@H]([C@H](OC)[C@H]23)[C@]1(OC(=O)CCCCCC(=O)O)[C@H]2[C@@H](OC(=O)c3ccccc3)[C@](O)(C[C@H]24)[C@@H](OC)[C@@H]1O
IC50 [1]: > 60 µM
IC50 [2]: > 60 µM
IC50 [3]: > 60 µM

CCN1C[C@]2(COC)[C@H](O)C[C@H](OC)[C@]34C1[C@H]([C@H](OC)[C@H]23)[C@]1(OC(=O)CCCCCCC(=O)O)[C@H]2[C@@H](OC(=O)c3ccccc3)[C@](O)(C[C@H]24)[C@@H](OC)[C@@H]1O
IC50 [1]: > 60 µM
IC50 [2]: > 60 µM
IC50 [3]: > 60 µM

CCN1C[C@]2(COC)[C@H](O)C[C@H](OC)[C@]34C1[C@H]([C@H](OC)[C@H]23)[C@]1(OC(=O)CCCCCCCC(=O)O)[C@H]2[C@@H](OC(=O)c3ccccc3)[C@](O)(C[C@H]24)[C@@H](OC)[C@@H]1O
IC50 [1]: > 60 µM
IC50 [2]: > 60 µM
IC50 [3]: > 60 µM

CCN1C[C@]2(COC)[C@H](O)C[C@H](OC)[C@]34C1[C@H]([C@H](OC)[C@H]23)[C@]1(OC(=O)CCCCCCCCC(=O)O)[C@H]2[C@@H](OC(=O)c3ccccc3)[C@](O)(C[C@H]24)[C@@H](OC)[C@@H]1O
IC50 [1]: > 60 µM
IC50 [2]: > 60 µM
IC50 [3]: > 60 µM

CCN1C[C@]2(COC)[C@H](O)C[C@H](OC)[C@]34C1[C@H]([C@H](OC)[C@H]23)[C@]1(OC(=O)CCCCCCCCCC(=O)O)[C@H]2[C@@H](OC(=O)c3ccccc3)[C@](O)(C[C@H]24)[C@@H](OC)[C@@H]1O
IC50 [1]: > 60 µM
IC50 [2]: > 60 µM
IC50 [3]: > 60 µM

CCN1C[C@]2(COC)[C@H](O)C[C@H](OC)[C@]34C1[C@H]([C@H](OC)[C@H]23)[C@]1(OC(=O)CCC(=O)O[C@]23[C@H]5[C@@H](OC(=O)c6ccccc6)[C@](O)(C[C@H]5[C@@]56C7[C@@H]2[C@H](OC)[C@@H]5[C@](COC)(CN7CC)[C@H](O)C[C@@H]6OC)[C@@H](OC)[C@@H]3O)[C@H]2[C@@H](OC(=O)c3ccccc3)[C@](O)(C[C@H]24)[C@@H](OC)[C@@H]1O
IC50 [1]: > 60 µM
IC50 [2]: > 60 µM
IC50 [3]: > 60 µM

CCN1C[C@]2(COC)[C@H](O)C[C@H](OC)[C@]34C1[C@H]([C@H](OC)[C@H]23)[C@]1(OC(=O)CCCC(=O)O[C@]23[C@H]5[C@@H](OC(=O)c6ccccc6)[C@](O)(C[C@H]5[C@@]56C7[C@@H]2[C@H](OC)[C@@H]5[C@](COC)(CN7CC)[C@H](O)C[C@@H]6OC)[C@@H](OC)[C@@H]3O)[C@H]2[C@@H](OC(=O)c3ccccc3)[C@](O)(C[C@H]24)[C@@H](OC)[C@@H]1O
IC50 [1]: > 60 µM
IC50 [2]: > 60 µM
IC50 [3]: > 60 µM

CCN1C[C@]2(COC)[C@H](O)C[C@H](OC)[C@]34C1[C@H]([C@H](OC)[C@H]23)[C@]1(OC(=O)CCCCC(=O)O[C@]23[C@H]5[C@@H](OC(=O)c6ccccc6)[C@](O)(C[C@H]5[C@@]56C7[C@@H]2[C@H](OC)[C@@H]5[C@](COC)(CN7CC)[C@H](O)C[C@@H]6OC)[C@@H](OC)[C@@H]3O)[C@H]2[C@@H](OC(=O)c3ccccc3)[C@](O)(C[C@H]24)[C@@H](OC)[C@@H]1O
IC50 [1]: > 60 µM
IC50 [2]: > 60 µM
IC50 [3]: > 60 µM

CCN1C[C@]2(COC)[C@H](O)C[C@H](OC)[C@]34C1[C@H]([C@H](OC)[C@H]23)[C@]1(OC(=O)CCCCCC(=O)O[C@]23[C@H]5[C@@H](OC(=O)c6ccccc6)[C@](O)(C[C@H]5[C@@]56C7[C@@H]2[C@H](OC)[C@@H]5[C@](COC)(CN7CC)[C@H](O)C[C@@H]6OC)[C@@H](OC)[C@@H]3O)[C@H]2[C@@H](OC(=O)c3ccccc3)[C@](O)(C[C@H]24)[C@@H](OC)[C@@H]1O
IC50 [1]: 7.56 µM
IC50 [2]: 4.64 µM
IC50 [3]: 9.5 µM

CCN1C[C@]2(COC)[C@H](O)C[C@H](OC)[C@]34C1[C@H]([C@H](OC)[C@H]23)[C@]1(OC(=O)CCCCCCC(=O)O[C@]23[C@H]5[C@@H](OC(=O)c6ccccc6)[C@](O)(C[C@H]5[C@@]56C7[C@@H]2[C@H](OC)[C@@H]5[C@](COC)(CN7CC)[C@H](O)C[C@@H]6OC)[C@@H](OC)[C@@H]3O)[C@H]2[C@@H](OC(=O)c3ccccc3)[C@](O)(C[C@H]24)[C@@H](OC)[C@@H]1O
IC50 [1]: 6.9 µM
T/C [4]: 36%
IC50 [2]: 4.01 µM
T/C [5]: 9.34%
Activity [6]: Non-toxic
MTD at 72 h [7]: 15 mg/kg
T/C [8]: 56%
Activity [9]: Non-toxic
T/C [10]: 49%
Activity [11]: Non-toxic
Activity [12]: Non-toxic
Activity [13]: Non-toxic
IC50 [3]: 7.53 µM
T/C [14]: 0%
T/C [15]: 0%
Activity [16]: Non-toxic
MTD at 96 h [17]: 15 mg/kg
MTD [18]: 15 mg/kg

CCN1C[C@]2(COC)[C@H](O)C[C@H](OC)[C@]34C1[C@H]([C@H](OC)[C@H]23)[C@]1(OC(=O)CCCCCCCC(=O)O[C@]23[C@H]5[C@@H](OC(=O)c6ccccc6)[C@](O)(C[C@H]5[C@@]56C7[C@@H]2[C@H](OC)[C@@H]5[C@](COC)(CN7CC)[C@H](O)C[C@@H]6OC)[C@@H](OC)[C@@H]3O)[C@H]2[C@@H](OC(=O)c3ccccc3)[C@](O)(C[C@H]24)[C@@H](OC)[C@@H]1O
IC50 [1]: 16.9 µM
IC50 [2]: 28 µM
IC50 [3]: 19.5 µM
